{
  "source": "patent US9464063B2",
  "about": "“Benzo [B] [1,4] oxazin derivatives as calcium sensing receptor modulators” (LUPIN ATLANTIS HOLDINGS SA, priority 2011, dated 2016)",
  "molecular_target": "T1, Calcium sensing receptor (hCaSR) (Homo sapiens, UniProt P41180)",
  "T1 construct": "expressed in transfected cells",
  "T1 sequence (P41180 20-1078)": "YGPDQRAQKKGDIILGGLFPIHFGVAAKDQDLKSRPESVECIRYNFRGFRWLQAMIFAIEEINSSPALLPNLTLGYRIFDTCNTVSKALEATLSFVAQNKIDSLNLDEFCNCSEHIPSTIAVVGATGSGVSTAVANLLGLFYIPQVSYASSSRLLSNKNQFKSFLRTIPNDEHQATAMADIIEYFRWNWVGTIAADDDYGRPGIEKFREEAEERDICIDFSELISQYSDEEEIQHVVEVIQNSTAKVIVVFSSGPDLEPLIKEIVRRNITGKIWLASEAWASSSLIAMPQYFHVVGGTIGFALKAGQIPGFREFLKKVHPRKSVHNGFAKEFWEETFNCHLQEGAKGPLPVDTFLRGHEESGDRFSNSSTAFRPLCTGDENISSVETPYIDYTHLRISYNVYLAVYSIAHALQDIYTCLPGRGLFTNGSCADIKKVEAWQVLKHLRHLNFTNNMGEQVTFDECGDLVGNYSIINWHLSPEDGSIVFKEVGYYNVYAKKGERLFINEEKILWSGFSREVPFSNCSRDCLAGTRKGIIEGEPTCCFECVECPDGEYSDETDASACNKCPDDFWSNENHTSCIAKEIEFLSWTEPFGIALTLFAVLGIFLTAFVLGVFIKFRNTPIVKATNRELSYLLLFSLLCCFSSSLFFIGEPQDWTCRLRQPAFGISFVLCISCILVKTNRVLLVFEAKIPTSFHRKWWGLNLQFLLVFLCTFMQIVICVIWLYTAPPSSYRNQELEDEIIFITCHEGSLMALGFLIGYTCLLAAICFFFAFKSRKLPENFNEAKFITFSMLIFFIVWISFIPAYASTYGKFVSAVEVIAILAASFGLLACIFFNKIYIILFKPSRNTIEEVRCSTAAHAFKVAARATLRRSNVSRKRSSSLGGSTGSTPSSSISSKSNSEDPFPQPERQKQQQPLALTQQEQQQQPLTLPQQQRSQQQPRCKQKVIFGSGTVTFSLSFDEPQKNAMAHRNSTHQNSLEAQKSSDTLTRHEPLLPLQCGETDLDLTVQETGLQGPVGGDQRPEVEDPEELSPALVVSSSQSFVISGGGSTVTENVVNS",
  "test": "In-vitro assay of calcimimetics through modulation of calcium sensing receptor: increase in intracellular calcium [Ca2+]i, FLIPR",
  "assay_type": "cell-based",
  "conditions": "stably transfected HEK293 cells expressing hCaSR; Fluo4NW dye; 0.3 mM CaCl2; 8-point assay; read-out: EC50 Range",
  "description": "In-Vitro Assay Method of Calcimemtics Through Modulation of Calcium Sensing Receptor (CaSR):\nThe ability of the compounds to modulate Calcium sensing receptor is determined by measuring an increase in intracellular calcium [Ca^2+]i. Stably transfected HEK293 cells expressing hCaSR_pTriEx-3 hygro vector are developed. Cells are grown overnight on a 96-well plate to 80% confluency in Ham's F12 containing 20% FBS at 37° C., 5% CO2. Subsequently, cells are washed extensively with 20 mM HEPES buffer containing 126 mM NaCl, 1 mM MgCl2 and 4 mM KCl to remove serum components that might interfere with the assay. Cells are loaded with calcium sensing Fluo4NW dye in HEPES base buffer containing 0.1% BSA and 1 mg/ml glucose for 30 minutes to measure changes in intracellular calcium. The activities of the compounds are measured in FLIPR using 0.3 mM CaCl2 in 20 mM HEPES base buffer. The effectiveness of the compound to modulate receptor activity is determined by calculating the EC50 responses for that compound in an 8-point assay and plotted using GraphPad Prism 5.",
  "note": "Where a name gives a salt, the structure may show the parent alone.",
  "data": [
    {"molecule": "Cc1ccc(CN2CC(CCN[C@H](C)c3cccc4ccccc34)Oc3ccccc32)cc1C(=O)O", "note": "(stereo partly drawn) [Example 177a, 2-Methyl-5-((2-(2-(((R)-1-(naphthalen-1-yl)ethyl)amino)ethyl)-2H-benzo[b][1,4]oxazin-4(3H)-yl)methyl)benzoic acid hydrochloride]", "values": [
      {"measurement": "EC50", "value": "< 20", "unit": "nM"}
    ]},
    {"molecule": "COc1ccc(N2CC(CCN[C@H](C)c3cccc4ccccc34)Oc3ccccc32)cc1C(=O)O", "note": "(stereo partly drawn) [Example 141a, 2-Methoxy-5-(2-(2-(((R)-1-(naphthalen-1-yl)ethyl)amino)ethyl)-2H-benzo[b] [1,4]oxazin-4(3H)-yl) benzoic acid hydrochloride]", "values": [
      {"measurement": "EC50", "value": "< 20", "unit": "nM"}
    ]},
    {"molecule": "C[C@@H](NCCC1CN(c2cccc(OCC(=O)O)c2)c2c(F)cccc2O1)c1cccc2ccccc12", "note": "(single isomer, unassigned) [Example 171a, hydrochloride]", "values": [
      {"measurement": "EC50", "value": "< 20", "unit": "nM"}
    ]},
    {"molecule": "Cc1ccc(N2CC(CN[C@H](C)c3cccc4ccccc34)Oc3cc(F)ccc32)cc1C(=O)O", "note": "(stereo partly drawn) [Example 84, 5-(7-Fluoro-2-((((R)-1-(naphthalen-1-yl)ethyl)amino)methyl)-2H-benzo[b][1,4]oxazin-4(3H)-yl)-2-methyl benzoic acid hydrochloride]", "values": [
      {"measurement": "EC50", "value": "20 to 50", "unit": "nM"}
    ]},
    {"molecule": "COC(=O)c1ccc(N2CC(CN[C@H](C)c3cccc4ccccc34)Oc3ccccc32)cc1", "note": "(single isomer, unassigned) [Example 2b, hydrochloride]", "values": [
      {"measurement": "EC50", "value": "20 to 50", "unit": "nM"}
    ]},
    {"molecule": "COc1ccc(C(=O)O)cc1N1CC(CN[C@H](C)c2cccc3ccccc23)Oc2ccccc21", "note": "(single isomer, unassigned) [Example 55a, hydrochloride]", "values": [
      {"measurement": "EC50", "value": "50 to 200", "unit": "nM"}
    ]},
    {"molecule": "CC(C)c1ccc(N2CC(CCN[C@H](C)c3cccc4ccccc34)Oc3ccccc32)cc1C(=O)O", "note": "(stereo partly drawn) [Example 137a, 2-Isopropyl-5-(2-(2-(((R)-1-(naphthalen-1-yl)ethyl)amino)ethyl)-2H-benzo[b] [1,4]oxazin-4(3H)-yl) benzoic acid hydrochloride]", "values": [
      {"measurement": "EC50", "value": "50 to 200", "unit": "nM"}
    ]},
    {"molecule": "COC(=O)c1ccc(N2CC(CN[C@H](C)c3cccc4ccccc34)Oc3ccccc32)cc1", "note": "(single isomer, unassigned) [Example 2a, hydrochloride]", "values": [
      {"measurement": "EC50", "value": "50 to 200", "unit": "nM"}
    ]},
    {"molecule": "C[C@@H](NCC1CN(c2cccc(OCC(=O)O)c2)c2ccccc2O1)c1cccc2ccccc12", "note": "(stereo partly drawn) [Example 50, 2-(3-(2-((((R)-1-(naphthalen-1-yl)ethyl)amino)methyl)-2H-benzo[b] [1,4]oxazin-4(3H)-yl)phenoxy)acetic acid hydrochloride]", "values": [
      {"measurement": "EC50", "value": "20 to 50", "unit": "nM"}
    ]},
    {"molecule": "C[C@@H](NCCC1CN(c2cccc(C(=O)O)c2)c2cc(F)ccc2O1)c1cccc2ccccc12", "note": "(single isomer, unassigned) [Example 167b]", "values": [
      {"measurement": "EC50", "value": "20 to 50", "unit": "nM"}
    ]},
    {"molecule": "Cc1ccc(N2CC(CCN[C@H](C)c3cccc4ccccc34)Oc3ccccc32)c(C)c1C(=O)O", "note": "(stereo partly drawn) [Example 148a, 2,6-Dimethyl-3-(2-(2-(((R)-1-(naphthalen-1-yl)ethyl)amino)ethyl)-2H-benzo[b] [1,4]oxazin-4(3H)-yl) benzoic acid hydrochloride]", "values": [
      {"measurement": "EC50", "value": "< 20", "unit": "nM"}
    ]},
    {"molecule": "Cc1ccc(N2CC(CN[C@H](C)c3cccc4ccccc34)Oc3ccccc32)cc1OC(C)(C)C(=O)O", "note": "(single isomer, unassigned) [Example 77a, hydrochloride]", "values": [
      {"measurement": "EC50", "value": "50 to 200", "unit": "nM"}
    ]},
    {"molecule": "C[C@@H](NCCC1CN(c2cccc(OCC(=O)O)c2)c2ccccc2O1)c1cccc2ccccc12", "note": "(stereo partly drawn) [Example 138a, 2-(3-(2-(2-(((R)-1-(Naphthalen-1-yl)ethyl)amino)ethyl)-2H-benzo[b][1,4]oxazin-4(3H)-yl)phenoxy)aceticacid hydrochloride]", "values": [
      {"measurement": "EC50", "value": "< 20", "unit": "nM"}
    ]},
    {"molecule": "Cc1ccc(N2CC(CN[C@H](C)c3cccc4ccccc34)Oc3ccccc32)cc1C(=O)O", "note": "(single isomer, unassigned) [Example 71b, hydrochloride]", "values": [
      {"measurement": "EC50", "value": "< 20", "unit": "nM"}
    ]},
    {"molecule": "Cc1ccc(N2CC(C)(CN[C@H](C)c3cccc4ccccc34)Oc3ccccc32)cc1C(=O)O", "note": "(single isomer, unassigned) [Example 86a, hydrochloride]", "values": [
      {"measurement": "EC50", "value": "50 to 200", "unit": "nM"}
    ]},
    {"molecule": "Cc1ccc(N2CC(CN[C@H](C)c3cccc4ccccc34)Oc3ccccc32)cc1C(=O)NCC(=O)O", "note": "(single isomer, unassigned) [Example 79b, hydrochloride]", "values": [
      {"measurement": "EC50", "value": "< 20", "unit": "nM"}
    ]}
  ]
}
